# Activity calls are given as the source filed them.
# Key:
# [1] = target: T1, Mannose-6-phosphate isomerase (Homo sapiens, UniProt P34949); experiment: human PMI inhibitors, high substrate, primary screen, biochemical, fluorescence intensity, high mannose 6-phosphate (AID 1220)
# T1 sequence (P34949 whole entry): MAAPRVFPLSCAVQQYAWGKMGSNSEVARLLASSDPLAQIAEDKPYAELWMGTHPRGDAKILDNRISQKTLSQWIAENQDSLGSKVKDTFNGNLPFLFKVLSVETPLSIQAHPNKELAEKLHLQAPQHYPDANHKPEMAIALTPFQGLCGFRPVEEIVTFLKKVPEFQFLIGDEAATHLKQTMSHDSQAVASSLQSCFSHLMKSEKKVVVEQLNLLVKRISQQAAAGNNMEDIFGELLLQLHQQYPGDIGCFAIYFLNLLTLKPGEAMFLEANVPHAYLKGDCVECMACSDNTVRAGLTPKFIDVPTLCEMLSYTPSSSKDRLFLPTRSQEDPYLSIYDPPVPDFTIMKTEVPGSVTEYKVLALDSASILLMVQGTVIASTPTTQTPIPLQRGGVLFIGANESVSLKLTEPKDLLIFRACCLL
# [2] = target: Ras and Rab interactor 1/Tyrosine-protein kinase ABL1 (Homo sapiens, UniProt P00519+Q13671); assay type: functional;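 further: biochemical TR-FRET dose-response test measuring inhibition of binding between Rin1 and Abl proteins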
# [3] = A549 cell cytotoxicity, dose response, cytotoxicity control, plate reader, cherry-pick, antagonist series (AID 743412); assay type: functional, cell-based
# [4] = HepG2 cell cytotoxicity, dose response, cytotoxicity control, plate reader, cherry-pick, antagonist series (AID 743416); assay type: functional, cell-based
# [5] = LGR2 antagonists, dose response, cell-based, HEK293, CRE-luciferase reporter, cherry pick, set 2 (AID 743343); assay type: functional;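 further: transfected cells were stimulated with diluted bursicon conditioned medium after compound addition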
# [6] = MC4R antagonists, dose response, counter-screen for LGR2 antagonist project, cell-based, plate reader, cherry pick (AID 743444); assay type: functional;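 further: transfected HEK 293 cells stimulated with alpha-MSH peptide; potency of inhibitors of the alpha-MSH evoked signal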
# [7] = HEK293 cell cytotoxicity, dose response, cytotoxicity control, plate reader, cherry-picked samples (AID 743446); assay type: functional, cell-based
# [8] = NIH-3T3 fibroblast cytotoxicity, dose response, cytotoxicity control, cell-based, fluorescence, Alamar Blue, secondary assay (AID 2327); assay type: functional;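 further: NIH-3T3 mouse fibroblasts cultured with fluconazole at 8 µg/mL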
# [9] = C. albicans growth with fluconazole, confirmation, fluorescence, retest (AID 2467); assay type: functional, cell-based
# [10] = P. falciparum late gametocyte killing, dose response, luminescence (AID 1117278); assay type: functional, cell-based;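 further: gametocytes exposed to compound for 24 hours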
# [11] = Jurkat T cell cytotoxicity, dose response, cytotoxicity control for P. falciparum gametocyte viability project, luminescence (AID 1117277); assay type: functional, cell-based;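 further: potency reflects loss of cellular ATP meaning fewer viable cells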
# [12] = target: T2, DNA repair and recombination protein RAD54-like (Homo sapiens, UniProt Q92698); experiment: inhibitors of human RAD54 branch migration, confirmation, biochemical, fluorescence, cherry-picked samples, dose series (AID 651657); assay type: functional
# T2 sequence (Q92698 whole entry): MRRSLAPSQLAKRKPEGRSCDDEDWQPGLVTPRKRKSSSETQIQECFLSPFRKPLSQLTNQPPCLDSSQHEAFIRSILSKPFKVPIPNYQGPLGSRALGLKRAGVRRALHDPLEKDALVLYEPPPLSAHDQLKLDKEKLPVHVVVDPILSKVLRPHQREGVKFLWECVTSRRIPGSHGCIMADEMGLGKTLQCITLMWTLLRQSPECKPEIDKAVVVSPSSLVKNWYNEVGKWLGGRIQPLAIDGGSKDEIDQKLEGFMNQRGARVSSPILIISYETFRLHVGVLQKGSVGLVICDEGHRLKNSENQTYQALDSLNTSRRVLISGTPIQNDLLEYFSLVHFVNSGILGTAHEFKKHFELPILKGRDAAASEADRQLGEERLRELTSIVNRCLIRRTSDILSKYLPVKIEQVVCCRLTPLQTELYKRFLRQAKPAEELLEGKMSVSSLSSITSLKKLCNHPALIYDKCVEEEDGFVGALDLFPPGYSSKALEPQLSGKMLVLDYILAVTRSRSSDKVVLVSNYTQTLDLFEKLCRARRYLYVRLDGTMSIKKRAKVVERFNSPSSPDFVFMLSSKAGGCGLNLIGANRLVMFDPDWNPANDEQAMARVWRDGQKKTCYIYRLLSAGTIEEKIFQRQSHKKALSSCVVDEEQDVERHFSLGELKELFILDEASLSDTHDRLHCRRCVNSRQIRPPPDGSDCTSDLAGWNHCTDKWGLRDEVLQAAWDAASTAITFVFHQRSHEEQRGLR
# [13] = target: Endoplasmic reticulum aminopeptidase 1 (Homo sapiens, UniProt Q9NZ08); experiment: ERAP1 aminopeptidase inhibitors, dose response, biochemical, cherry-pick, set 2, plate reader (AID 743314)
# [14] = target: Peroxisome proliferator-activated receptor gamma/Nuclear receptor corepressor 2 (Homo sapiens, UniProt P37231+Q9Y618); experiment: Counterscreen for NR2E3 inverse agonists: TR-FRET-based biochemical high throughput dose response assay to identify inverse agonists of the interaction between peroxisome proliferator-activated receptor gamma (PPARg) and nuclear receptor co-repressor 2 (NCOR2).; assay type: functional
# Chain of Peroxisome proliferator-activated receptor gamma/Nuclear receptor corepressor 2 (P37231 whole entry): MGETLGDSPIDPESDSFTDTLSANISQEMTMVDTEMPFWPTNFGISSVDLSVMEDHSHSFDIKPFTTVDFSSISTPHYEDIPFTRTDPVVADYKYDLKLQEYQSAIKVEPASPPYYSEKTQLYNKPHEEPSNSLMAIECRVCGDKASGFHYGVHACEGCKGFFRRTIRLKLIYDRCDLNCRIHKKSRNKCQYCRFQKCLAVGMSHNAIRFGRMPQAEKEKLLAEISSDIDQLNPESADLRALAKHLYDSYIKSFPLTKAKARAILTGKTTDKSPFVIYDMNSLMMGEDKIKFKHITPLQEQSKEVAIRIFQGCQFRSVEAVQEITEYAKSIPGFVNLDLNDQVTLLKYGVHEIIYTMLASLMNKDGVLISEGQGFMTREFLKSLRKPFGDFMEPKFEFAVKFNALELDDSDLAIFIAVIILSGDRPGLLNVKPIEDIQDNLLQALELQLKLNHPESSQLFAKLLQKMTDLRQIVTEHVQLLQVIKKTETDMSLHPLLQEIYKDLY
# Chain of Peroxisome proliferator-activated receptor gamma/Nuclear receptor corepressor 2 (Q9Y618 whole entry): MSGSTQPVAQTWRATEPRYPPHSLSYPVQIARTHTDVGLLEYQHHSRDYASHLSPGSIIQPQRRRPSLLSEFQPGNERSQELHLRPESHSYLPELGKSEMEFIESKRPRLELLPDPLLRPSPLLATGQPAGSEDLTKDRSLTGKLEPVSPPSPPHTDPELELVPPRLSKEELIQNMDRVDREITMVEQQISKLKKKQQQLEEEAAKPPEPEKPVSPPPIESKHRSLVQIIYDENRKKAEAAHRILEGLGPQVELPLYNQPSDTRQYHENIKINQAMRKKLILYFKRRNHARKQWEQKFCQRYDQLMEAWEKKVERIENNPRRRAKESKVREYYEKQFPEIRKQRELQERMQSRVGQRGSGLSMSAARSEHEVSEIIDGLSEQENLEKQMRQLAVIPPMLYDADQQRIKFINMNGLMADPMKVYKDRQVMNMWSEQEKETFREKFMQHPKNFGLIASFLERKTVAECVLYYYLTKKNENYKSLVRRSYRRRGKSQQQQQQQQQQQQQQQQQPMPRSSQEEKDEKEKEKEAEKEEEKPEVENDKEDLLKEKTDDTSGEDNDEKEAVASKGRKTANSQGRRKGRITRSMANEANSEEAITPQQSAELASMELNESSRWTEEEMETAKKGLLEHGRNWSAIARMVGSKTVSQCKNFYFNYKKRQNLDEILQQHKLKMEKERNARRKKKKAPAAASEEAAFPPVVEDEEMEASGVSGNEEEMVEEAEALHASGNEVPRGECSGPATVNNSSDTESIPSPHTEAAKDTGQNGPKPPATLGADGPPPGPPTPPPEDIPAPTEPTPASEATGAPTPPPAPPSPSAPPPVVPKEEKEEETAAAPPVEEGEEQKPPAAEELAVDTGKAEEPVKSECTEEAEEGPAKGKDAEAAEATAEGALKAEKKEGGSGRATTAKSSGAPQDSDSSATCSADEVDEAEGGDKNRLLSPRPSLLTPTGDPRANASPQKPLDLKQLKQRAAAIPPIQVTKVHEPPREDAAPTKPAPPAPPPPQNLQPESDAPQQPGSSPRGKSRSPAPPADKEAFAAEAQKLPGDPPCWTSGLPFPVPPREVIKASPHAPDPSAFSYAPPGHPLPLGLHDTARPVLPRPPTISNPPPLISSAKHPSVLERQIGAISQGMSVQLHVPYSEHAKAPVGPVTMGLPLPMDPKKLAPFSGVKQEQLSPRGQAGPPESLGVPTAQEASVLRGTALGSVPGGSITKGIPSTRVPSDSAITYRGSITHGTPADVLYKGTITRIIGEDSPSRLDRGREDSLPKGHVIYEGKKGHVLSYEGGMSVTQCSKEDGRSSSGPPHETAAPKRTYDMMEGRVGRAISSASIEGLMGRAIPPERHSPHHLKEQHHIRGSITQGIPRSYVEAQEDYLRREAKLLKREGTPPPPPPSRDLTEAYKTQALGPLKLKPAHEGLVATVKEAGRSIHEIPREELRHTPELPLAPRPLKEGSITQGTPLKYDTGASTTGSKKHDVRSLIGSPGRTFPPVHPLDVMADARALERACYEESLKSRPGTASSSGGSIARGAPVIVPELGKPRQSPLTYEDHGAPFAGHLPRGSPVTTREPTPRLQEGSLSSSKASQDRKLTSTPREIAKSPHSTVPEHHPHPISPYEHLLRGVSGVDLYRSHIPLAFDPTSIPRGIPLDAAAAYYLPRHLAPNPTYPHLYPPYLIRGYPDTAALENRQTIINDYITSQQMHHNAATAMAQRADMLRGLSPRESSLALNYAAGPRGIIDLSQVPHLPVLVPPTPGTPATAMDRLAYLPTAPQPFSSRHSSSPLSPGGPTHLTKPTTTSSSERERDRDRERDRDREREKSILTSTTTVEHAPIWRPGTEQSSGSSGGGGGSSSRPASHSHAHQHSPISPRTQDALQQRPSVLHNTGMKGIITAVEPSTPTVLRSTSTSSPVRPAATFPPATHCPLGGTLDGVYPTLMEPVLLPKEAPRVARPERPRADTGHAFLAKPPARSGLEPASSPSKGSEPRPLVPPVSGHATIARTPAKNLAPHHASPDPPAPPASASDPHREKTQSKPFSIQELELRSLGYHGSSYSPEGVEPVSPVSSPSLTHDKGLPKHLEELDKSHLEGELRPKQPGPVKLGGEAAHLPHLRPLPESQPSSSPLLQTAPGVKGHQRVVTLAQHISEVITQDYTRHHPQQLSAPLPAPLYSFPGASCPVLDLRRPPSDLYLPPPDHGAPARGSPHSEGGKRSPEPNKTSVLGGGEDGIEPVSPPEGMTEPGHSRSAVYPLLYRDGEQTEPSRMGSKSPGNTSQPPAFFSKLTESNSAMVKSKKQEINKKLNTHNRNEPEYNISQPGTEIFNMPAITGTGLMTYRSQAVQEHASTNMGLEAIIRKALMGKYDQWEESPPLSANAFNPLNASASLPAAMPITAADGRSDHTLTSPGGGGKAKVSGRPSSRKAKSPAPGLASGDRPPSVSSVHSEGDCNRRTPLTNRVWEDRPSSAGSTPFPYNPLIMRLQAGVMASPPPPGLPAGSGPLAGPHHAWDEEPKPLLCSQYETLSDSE
# [15] = target: Photoreceptor-specific nuclear receptor (Homo sapiens, UniProt Q9Y5X4); experiment: NR2E3 inverse agonists, dose response, biochemical, TR-FRET (AID 463256); assay type: functional
# Chain of Photoreceptor-specific nuclear receptor (Q9Y5X4 whole entry): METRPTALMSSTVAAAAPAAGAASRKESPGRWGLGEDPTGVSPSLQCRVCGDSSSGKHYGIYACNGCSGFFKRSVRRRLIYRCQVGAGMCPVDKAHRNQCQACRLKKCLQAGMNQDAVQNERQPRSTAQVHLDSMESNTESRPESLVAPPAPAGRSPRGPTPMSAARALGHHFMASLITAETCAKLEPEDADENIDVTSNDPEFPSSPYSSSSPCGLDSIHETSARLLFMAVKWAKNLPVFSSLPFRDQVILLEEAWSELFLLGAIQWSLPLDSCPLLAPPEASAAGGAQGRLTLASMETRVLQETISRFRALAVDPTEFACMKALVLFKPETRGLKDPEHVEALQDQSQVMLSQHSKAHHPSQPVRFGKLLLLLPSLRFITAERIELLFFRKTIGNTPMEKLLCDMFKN
# [16] = target: 26S proteasome non-ATPase regulatory subunit 14 (Homo sapiens, UniProt O00487); experiment: inhibition of proteasome subunit RPN11 – biochemical, fluorescence polarization, uHTS hits, confirmation (AID 602368); assay type: functional
# Chain of 26S proteasome non-ATPase regulatory subunit 14 (O00487 whole entry): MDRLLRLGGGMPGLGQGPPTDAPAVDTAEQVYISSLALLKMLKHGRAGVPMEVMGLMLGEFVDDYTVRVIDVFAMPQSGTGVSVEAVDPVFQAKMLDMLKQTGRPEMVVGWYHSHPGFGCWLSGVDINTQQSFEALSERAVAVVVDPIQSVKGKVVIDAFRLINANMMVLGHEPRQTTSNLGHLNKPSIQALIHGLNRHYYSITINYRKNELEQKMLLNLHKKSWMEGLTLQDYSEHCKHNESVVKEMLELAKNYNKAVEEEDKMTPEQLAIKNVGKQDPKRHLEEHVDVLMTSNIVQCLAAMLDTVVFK
# [17] = target: 72 kDa type IV collagenase (Homo sapiens, UniProt P08253); experiment: Dose Response validation of uHTS RPN11 inhibitor hits using a MMP-2 Fluorescence assay.; assay type: functional
# Chain of 72 kDa type IV collagenase (P08253 whole entry): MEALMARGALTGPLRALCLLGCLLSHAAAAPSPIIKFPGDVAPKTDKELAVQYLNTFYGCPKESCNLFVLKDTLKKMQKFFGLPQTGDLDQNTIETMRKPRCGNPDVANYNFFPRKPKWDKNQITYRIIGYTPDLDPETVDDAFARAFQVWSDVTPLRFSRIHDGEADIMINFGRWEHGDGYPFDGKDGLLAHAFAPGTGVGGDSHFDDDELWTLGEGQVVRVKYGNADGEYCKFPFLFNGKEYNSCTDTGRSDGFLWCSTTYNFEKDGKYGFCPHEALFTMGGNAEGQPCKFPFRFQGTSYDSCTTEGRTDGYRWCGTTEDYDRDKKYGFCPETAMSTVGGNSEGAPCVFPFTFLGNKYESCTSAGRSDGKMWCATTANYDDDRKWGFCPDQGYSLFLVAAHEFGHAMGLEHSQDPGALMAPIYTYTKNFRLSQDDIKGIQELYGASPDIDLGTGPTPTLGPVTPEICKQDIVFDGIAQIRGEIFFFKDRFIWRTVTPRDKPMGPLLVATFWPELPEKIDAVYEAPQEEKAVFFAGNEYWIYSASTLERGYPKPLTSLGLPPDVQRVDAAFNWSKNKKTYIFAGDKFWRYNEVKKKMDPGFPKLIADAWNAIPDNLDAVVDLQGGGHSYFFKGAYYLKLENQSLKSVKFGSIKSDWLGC
# Prothrombin = Prothrombin (Bos taurus, UniProt P00735); experiment: thrombin inhibition, dose response, biochemical, fluorescence polarization, uHTS hits (AID 602369); assay type: functional
# Cytochrome P450 2C19 = Cytochrome P450 2C19 (Homo sapiens, UniProt P33261); experiment: qHTS Assay for Inhibitors and Substrates of Cytochrome P450 2C19. [Related pubchem assays: 410 ]; assay type: ADME; conditions: read-out: Potency
# Chain of Cytochrome P450 2C19 (P33261 whole entry): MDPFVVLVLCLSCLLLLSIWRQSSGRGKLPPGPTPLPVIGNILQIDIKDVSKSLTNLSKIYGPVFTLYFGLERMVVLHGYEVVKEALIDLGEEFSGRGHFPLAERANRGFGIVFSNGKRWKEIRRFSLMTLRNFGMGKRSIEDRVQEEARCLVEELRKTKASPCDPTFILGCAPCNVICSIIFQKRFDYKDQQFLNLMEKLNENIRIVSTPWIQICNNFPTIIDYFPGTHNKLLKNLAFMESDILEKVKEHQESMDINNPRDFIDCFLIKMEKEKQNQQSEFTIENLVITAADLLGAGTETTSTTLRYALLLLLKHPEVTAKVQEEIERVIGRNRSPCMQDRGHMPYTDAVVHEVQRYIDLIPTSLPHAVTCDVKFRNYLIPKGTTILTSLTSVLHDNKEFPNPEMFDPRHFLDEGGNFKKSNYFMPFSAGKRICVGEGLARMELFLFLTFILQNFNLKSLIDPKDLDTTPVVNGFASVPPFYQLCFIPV
# Vero = experiment: West Nile virus antiviral activity, cell-based, CPE readout (AID 1621); assay type: functional; conditions: Chlorocebus sabaeus
# [18] = tested on: Streptococcus sp. 'group A'; experiment: growth inhibition of control SK(-) GAS strain, dose response, counter-screen for streptokinase expression inhibitor project, luminescence, kanamycin, BacTiterGlo, confirmation (AID 1900); assay type: functional, organism-based
# BJ [19] = experiment: cytotoxicity toward BJ-TERT fibroblasts, dose response, cell-based, RAS-independent, luminescence (AID 1933); assay type: functional; conditions: Homo sapiens
# Streptokinase A = target: T3, Streptokinase A (Streptococcus pyogenes serotype M1, UniProt P10520); experiment: S. pyogenes streptokinase expression inhibitors, potency, dose response, plasminogen activation absorbance, OD405 (AID 1914); assay type: functional, Streptococcus pyogenes M1 GAS;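 further: secreted streptokinase activity via plasminogen activation per viability signal from cell pellet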
# T3 sequence (P10520 whole entry): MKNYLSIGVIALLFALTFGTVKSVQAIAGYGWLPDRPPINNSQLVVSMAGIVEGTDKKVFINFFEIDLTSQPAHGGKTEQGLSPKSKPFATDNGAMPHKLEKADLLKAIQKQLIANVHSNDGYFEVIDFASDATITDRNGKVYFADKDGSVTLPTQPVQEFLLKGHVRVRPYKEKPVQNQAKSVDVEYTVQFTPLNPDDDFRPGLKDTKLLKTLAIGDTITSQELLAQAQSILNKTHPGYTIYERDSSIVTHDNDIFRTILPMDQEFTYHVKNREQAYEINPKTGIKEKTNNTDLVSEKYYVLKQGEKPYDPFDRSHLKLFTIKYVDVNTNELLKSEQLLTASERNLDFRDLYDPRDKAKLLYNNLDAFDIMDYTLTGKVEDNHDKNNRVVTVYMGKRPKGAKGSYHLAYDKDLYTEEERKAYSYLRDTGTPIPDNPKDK
# BJ [20] = experiment: cells; assay type: functional, cell-based; conditions: Homo sapiens
# BJ [21] = experiment: cytotoxicity toward BJ-TERT-LT-ST fibroblasts, dose response, cell-based, RAS-independent, luminescence (AID 1935); assay type: functional; conditions: Homo sapiens;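 further: BJ fibroblasts immortalized with TERT plus LT and ST oncogenes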
# [22] = cytotoxicity toward DRD oncogenic fibroblasts, dose response, cell-based, non-viral oncogenic, luminescence (AID 1934); assay type: functional; conditions: Homo sapiens
# Streptococcus = experiment: Group A Streptococcus viability loss, dose response, counter-screen for streptokinase expression inhibitor project, luminescence, BacTiterGlo (AID 1915); assay type: functional, organism-based;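 further: potency for reduction of bacterial viability or growth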
# [23] = cytotoxicity in HEK-293T cells, dose response, cytotoxicity control for BCR NF-kB inhibitor project, luminescence, B-cell screen hits (AID 489021); assay type: functional, cell-based;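 further: HEK-293T cells carrying an NF-kB luciferase reporter; cells exposed to compound for about 14 hours before viability readout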
# INS1 = experiment: beta cell apoptosis inhibitors, cytokine rescue, dose response, luminescence, retest (AID 449756); assay type: functional, cell-based; conditions: Rattus norvegicus;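 further: cell death triggered by IL-1 beta plus TNF-alpha plus IFN-gamma mixture; protective hits raise ATP signal compared with cytokine alone wells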
# [24] = Shn3 3'UTR reporter inhibitors, dose response, cell-based, Clone20 osteoblasts, firefly luciferase, cherry-picked (AID 624132); assay type: functional;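 further: firefly luciferase luminescence from reporter carrying the Shn3 3'UTR in osteoblasts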
# [25] = HepG2 cell cytotoxicity, dose response, cytotoxicity control for Shn3 inhibitor project, CellTiter-Glo, cherry-picked (AID 624134); assay type: functional, cell-based
# [26] = control 3'UTR Renilla luciferase suppression, dose response, counter-screen for Shn3 inhibitor project, cell-based, Clone20-Shn3RL, cherry-picked (AID 624133); assay type: functional
# [27] = miR-122 activators in hepatoma reporter cells, dose response, cell-based, Huh7 psiCHECK-miR122, Renilla luciferase, cherry-picked (AID 651956); assay type: functional;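 further: huh7 hepatoma cells stably carrying a psiCHECK-2 miR-122 sensor plasmid; renilla luciferase signal reporting endogenous miR-122 activity after 48 h compound exposure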
# [28] = inhibitors of PGC1a acetylation in cells, dose response, cell-based, cherry-picked samples (AID 720514); assay type: functional;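 further: potency may reflect raised or lowered acetylation signal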
# [29] = HEK293T cytotoxicity, dose response, cytotoxicity control for miR-122 modulator project, cell-based, inhibitor set, cherry-pick, set 2 (AID 720697); assay type: functional
# [30] = HEK293T cytotoxicity, dose response, cytotoxicity control for miR-122 modulator project, cell-based, activator set, cherry-pick (AID 720690); assay type: functional;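 further: HEK293T human cells scored for general mammalian cytotoxicity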
# [31] = P. falciparum 3D7-ScDHODH growth inhibitors, dose response, SYBR Green, dry powder samples (AID 1159570); assay type: functional, cell-based;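 further: parasite growth measured after 72 hours of compound exposure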
# [32] = HepG2 cell cytotoxicity, dose response, cytotoxicity control, plate reader, dry powder samples (AID 1159569); assay type: functional, cell-based;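 further: inhibitor potency with signal falling toward the positive control level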
# [33] = P. falciparum Dd2 growth inhibitors, dose response, SYBR Green, cherry-picked samples (AID 1159567); assay type: functional, cell-based
# [34] = P. falciparum Dd2 growth inhibitors, dose response, SYBR Green, dry powder samples (AID 1159566); assay type: functional, cell-based;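 further: potency for growth inhibition with lower SYBR green DNA signal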
# [35] = HepG2 cell cytotoxicity, dose response, cytotoxicity control, cherry-picked samples (AID 1159577); assay type: functional, cell-based
# [36] = P. falciparum ATP4 D1247Y mutant growth inhibitors, dose response, NITD609-resistant line, SYBR Green, dry powder (AID 1159571); assay type: functional, cell-based;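 further: parasites synchronized at ring stage by sorbitol before testing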
smiles,measurement,setting,value
Nc1c(N2CCOCC2)cc(Cl)c2nonc12,IC50,[1],> 50 µM (not active)
CCOC(=O)c1ccc(NC(=O)COc2ccccc2CNCCc2ccccc2)cc1,IC50,[2],25.9 µM (inactive)
same,AC50,[3],10 µM (active)
same,AC50,[4],13.9 µM (active)
same,AC50,[5],17.4 µM (active)
same,AC50,[6],27.7 µM (active)
same,AC50,[7],15.4 µM (active)
CC(=O)c1cnc(Nc2cccc(Cl)c2Cl)s1,EC50,[8],> 160 µM (inactive)
same,EC50,[9],> 38 µM (not active)
same,IC50,[10],> 109 µM (inactive)
same,IC50,[11],> 83.3 µM (inactive)
CN1CCCC1CCNc1ccc2c(=O)c3ccccc3oc2c1 (configuration not stated),AC50,[12],21.1 µM (active)
same,AC50,[13],4.52 µM (active)
Cc1c(NC(=O)c2cccc(-c3cc4ccccc4oc3=O)c2)cccc1-c1nc2ncccc2o1,IC50,[14],1.72 µM (active)
same,IC50,[15],2.33 µM (active)
same,IC50,[16],24.1 µM (active)
same,IC50,[17],> 100 µM (inactive)
same,IC50,Prothrombin,92 µM (active)
Cc1ccc(NCC(O)C(O)C(O)CO)cc1C (configuration not stated),IC50,[10],> 109 µM (inactive)
same,IC50,[11],> 83.3 µM (inactive)
CC(=O)c1ccc(C2C=CC(Oc3ccc(F)cc3C)C(CO)O2)cc1 (configuration not stated),AC50,Cytochrome P450 2C19,6.31 µM (inconclusive)
O=C(Cc1ccc(Cl)cc1)Nc1ccc2oc(-c3ccncc3)nc2c1,IC50,[14],5.54 µM (active)
same,IC50,[15],4.29 µM (active)
CCOC(=O)c1[nH]c2ccccc2c1NC(=O)CC(C)(C)C,IC50,Vero,22.2 µM (active)
COc1cccc(N2CCN(c3[nH]cnc4c5cc(F)ccc5nc3-4)CC2C)c1 (configuration not stated),EC50,[18],8 µM (active)
same,EC50,BJ [19],6.14 µM (inconclusive)
same,EC50,Streptokinase A,15.3 µM (active)
same,EC50,BJ [20],9.04 µM (active)
same,EC50,BJ [21],8.16 µM (active)
same,EC50,[22],6.44 µM (active)
same,EC50,Streptococcus,48.4 µM (active)
same,IC50,[23],1.83 µM (active)
same,AC50,INS1,2.25 µM (active)
same,AC50,[24],1.31 µM (active)
same,AC50,[25],9.99 µM (active)
same,AC50,[26],490 nM (active)
same,AC50,[27],6.99 µM (active)
same,AC50,[28],6.56 µM (active)
same,AC50,[29],3.06 µM (active)
same,AC50,[30],3.35 µM (active)
NC(=O)COC(=O)CC(NC(N)=O)c1ccc(Cl)cc1 (configuration not stated),AC50,[28],28.7 µM (active)
Cc1nc(N2[C@H](CO)[C@H](c3ccccc3)[C@H]2CNCC2CCCCC2)sc1C,AC50,[31],1.03 µM (active)
same,AC50,[32],71.2 µM (active)
same,AC50,[33],1.13 µM (active)
same,AC50,[34],595 nM (active)
same,AC50,[35],> 42 µM (inactive)
same,AC50,[36],691 nM (active)
C[C@H]1CN([C@@H](C)CO)S(=O)(=O)c2ccc(C#CC3CCCCC3)cc2O[C@H]1CN(C)C,AC50,[31],8.69 µM (active)
same,AC50,[32],> 100 µM (inactive)
same,AC50,[34],4600 nM (active)
same,AC50,[36],2420 nM (active)
C=C[C@@]1(C)C=C2CC[C@@H]3[C@](C)(CCC[C@@]3(C)C(=O)O)[C@H]2CC1 [PIMARIC ACID],AC50,Cytochrome P450 2C19,7.94 µM (inconclusive)
